Assay results published in PubChem BioAssay (NCI).
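The compound was tested at five concentrations on cells cultured in 96-well plates, with a 48-hour exposure period. Here, GI50 denotes the concentration required for 50% inhibition of growth. TGI: total growth inhibition.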

System: MDA-MB-468 breast
Assay: NCI-60 cell line screen, 48 h

SMILES	GI50 [nM]	TGI [nM]
O=C(O)/C=C\C(=O)N1C/C(=C\c2ccccc2Cl)C(=O)/C(=C/c2ccccc2Cl)C1	1540	3460
Cc1ccc(-c2nc(C(Cl)Cl)nc3cc(-c4ccccc4)nn23)cc1	2940	
COC(=O)[C@H](C[C@H](Cc1ccccc1)NC(=O)c1csc([C@@H](C[C@H](C(C)C)N(C)C(=O)[C@@H](NC(=O)[C@H]2CCCCN2C)C(C)C)OC(C)=O)n1)NC(=O)OCc1ccccc1	< 0.9	< 0.9
C=CCOc1cccc(/C=C2\SC(=Nc3ccc(O)cc3)NC2=O)c1	416	4170
COc1cc(C2CC(c3ccc4c(c3)OCO4)=NN2C=O)cc(OC)c1OC (centres undefined)	2050	6810
CC1(C)CC(=O)c2c(C(F)(F)F)nn(-c3ccc(C(N)=O)c(NC4CCC(OC(=O)CN)CC4)c3)c2C1 (centres undefined)	24.3	68.3
CCCC(C)c1cc(Cc2cc(Cl)cc(Cl)c2O)c(O)c(Cc2cc(Cl)cc(Cl)c2O)c1 (centres undefined)	393	5070
CCN(CC)CC(C)Nc1ccc([N+](=O)[O-])c2sc3ccccc3c(=O)c12 (centres undefined)	1810	5790
OC1CCN(CCCOc2c3ccc(Cl)cc3nc3c2oc2ccc(Cl)cc23)CC1	1820	7880
CC#C[C@]1(O)CC[C@H]2[C@@H]3CCC4=CC(=O)CCC4=C3[C@@H](c3ccc4c(c3)OCO4)C[C@@]21C	101000	559000
Cn1cc(-c2ccc3occ(-c4cccc(-c5ccncc5)c4)c3n2)cn1	240	941
N=C(N)c1ccc(-c2ccc(-c3cc(Cl)cc(Cl)c3)o2)nc1	1690	3290
COc1ccc2sc3c(NCCCN(C)C)nc4ccccc4c3c(=O)c2c1	1620	3210
COc1cc(/C=C/c2cc(O)c3cc(C(C)=O)c(=O)oc3c2)cc2c1O[C@]1(C)CC[C@@H](O)C(C)(C)[C@H]1C2	3870	20500
O=C1c2cccnc2C(=O)c2nc3cc(N4CCN(C5CC5)CC4)ccc3nc21	1680	4030
COc1ccc(/C=C2\CCCC3=C2N=C2SC(C)=NN2C3c2ccc(OC)c(OC)c2)cc1OC (centres undefined)	2610	9090
Nc1nc2c(c3ncncc13)C(c1cccc(C(F)(F)F)c1)Cc1ncncc1-2 (centres undefined)	2780	8890
CN(C)CC(=O)Nc1ccc(Cn2nnc3c2C(=O)c2nnn(Cc4ccc(NC(=O)CN(C)C)cc4)c2C3=O)cc1	104	258
COc1ccc(/C(=C2/O[C@@H]([C@H]3COC(C)(C)O3)[C@H]3OC(C)(C)O[C@@H]23)c2cc(OC)c(OC)c(OC)c2)cc1O	25600	63600
Oc1cccc2ccc(N/N=C/c3cc(CN4CCCCC4)c(O)c4ncccc34)nc12	40.1	533
CC[C@@H](C(=O)O)C1CC[C@H](C)C([C@@H](C)[C@H](O)[C@H](C)C(=O)[C@H](CC)C2O[C@]3(C=C[C@@H](O)[C@]4(CC[C@@](C)(C5CC[C@](O)(CC)[C@H](C)O5)O4)O3)[C@H](C)C[C@@H]2C)O1 (some centres undefined)	292	4340
O=c1cc(-c2ccccc2)[nH]c2ccccc12	481	

SMILES	GI50 [nM]	TGI [nM]
COc1cc2c(c(OC)c1)C1c3ccccc3NC(=O)N1CC2 (centres undefined)	2550	8570
CC(C)c1cc(-c2n[nH]c(=O)n2-c2ccc3c(ccn3C)c2)c(O)cc1O	< 14.3	327
CCCCC(CC)CN=C(N)NC(N)=NCCCCCCN=C(N)NC(N)=NCC(CC)CCCC (centres undefined)	1270	2730
CN1CCC(n2cnc(-c3ccc(F)cc3)c2-c2ccnc(NCCO)n2)CC1	10000	> 25000
COc1ccc(-c2c3c(N)nc(-c4ccncc4)nc3nc3c2c(C)nn3-c2ccccc2)cc1	7750	> 100000
COc1ccc2nc(-c3ccc(-c4noc(-c5cc(OC)c(OC)c(OC)c5)n4)cc3)[nH]c2c1	6540	26300
O=C(CCCCCCC(=O)Nc1ccc(N(CCCl)CCCl)cc1)NO	232	1110
COc1cccc(-n2ncc3c(N/N=C/c4ccc(C(=O)NCCN(C)C)cc4)ncnc32)c1	853	5160
Cc1ccccc1[P+](Cc1ccccc1)(c1ccccc1)c1ccccc1	367	4000
Cc1cc(N(CCCl)CCCl)ccc1C=Nc1ccc(-c2csc(Cc3ccccc3)n2)cc1	160	2860
CC1SC(c2ccccc2)N(CCc2cccs2)C1=O (centres undefined)	2430	8420
COc1ccc2c(c1)cn1c3ccc(O)cc3nc(N)c21	747	4730
CC(C)C[C@H]1C(=O)O[C@H](C(C)C)C(=O)N(C)[C@@H](C(C)C)C(=O)O[C@H](C(C)C)C(=O)N(C)[C@@H](C(C)C)C(=O)O[C@H](C(C)C)C(=O)N1C	2010	9350
NCCOCCOCCNc1nc(Cc2ccccc2)nc(NCCCN2CCCC2=O)n1	> 100000	> 100000
OC(c1cc(-c2ccccc2)nc2ccc(Cl)cc12)C1CCCCN1 (centres undefined)	2010	3860
COC(=O)[C@@]1(C)CC[C@]2(C)CC[C@]3(C)C4=CC=C5C(=CC(=O)C(O)=C5C)[C@]4(C)[C@@H](O)C[C@@]3(C)[C@@H]2C1	9710	21900
COc1cccc2c1c(C(=O)C(=O)Nc1cc(C)no1)cn2Cc1ccc(F)cc1	2420	17700
COc1ccc(-c2csc(N(C(=O)N3CCN(c4cc5c(cc4F)c(=O)c(C(=O)O)cn5C4CC4)CC3)c3ccccc3)n2)cc1	2550	8740
COc1ccc(-c2n/c(=C\c3c(O)[nH]c4ccc(OC)cc34)cc3c2=Nc2ccccc2-3)cc1	1560	3460
O=C(NCCO)Nc1ccc(-c2nc(N3CCOCC3)c3cccn3n2)cc1	88.9	2350
CCc1nccc2c1nc(-c1nonc1N)n2CC	> 25000	> 25000
